Measured values published in PubChem BioAssay (NCI).
Values joined by “and” are separate entries in the source; they are usually repeats but may differ in a detail not shown here. Equal entries are not always repeated.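 Cultured in 96-well plates, cells were exposed to test compound for 48 hours across five concentrations. At the GI50, growth is halved. TGI denotes the concentration required for complete inhibition of growth.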

Tests used:
Assay in all cases: NCI-60 cell line screen, 48 h
[1] = test system: SK-OV-3 ovarian
[2] = test system: 786-0 renal
[3] = test system: NCI-H23 lung
[4] = test system: RPMI-8226 leukemia
[5] = test system: HCT-15 colon
[6] = test system: SK-MEL-28 melanoma
[7] = test system: NCI-H226 lung
[8] = test system: MDA-MB-435
[9] = test system: NCI/ADR-RES ovarian
[10] = test system: T-47D breast

Structure (SMILES)	TGI [1]	TGI [2]	TGI [3]	TGI [4]	TGI [5]	TGI [6]	TGI [7]	GI50 [1]	GI50 [2]	GI50 [3]	GI50 [8]	TGI [8]	GI50 [5]	GI50 [9]	TGI [9]	GI50 [10]	TGI [10]	GI50 [6]	GI50 [7]	GI50 [4]
CCOC(OC(C)=O)[C@@H]1C=C[C@H](C)N(c2ccc([N+](=O)[O-])cc2)O1 (some centres not stated)	35.3 µM	7.23 µM	16.2 µM	5.45 µM	6.77 µM	9.62 µM	14 µM													
CSc1ccc2c(cc1=O)[C@@H](NC(=O)c1cccc([N+](=O)[O-])c1)CCc1cc(O)c(O)c(O)c1-2	> 100 µM	> 100 µM	> 100 µM	> 100 µM	> 100 µM	> 100 µM	57.9 µM													
C=C(CCCCC)CN1CCCC1C(C)=O (configuration not stated)	> 100 µM	> 100 µM	65.1 µM	40 µM	> 100 µM	> 100 µM	68.9 µM													
O=C(NCCCCN1CCOCC1)c1cc2ccccc2o1	> 100 µM	> 100 µM	> 100 µM		> 100 µM	> 100 µM	> 100 µM	> 100 µM	> 100 µM	> 100 µM	> 100 µM	> 100 µM	> 100 µM	> 100 µM	> 100 µM	> 100 µM	> 100 µM	> 100 µM	> 100 µM	
Cc1ccc(O)c(NC(=O)c2cccc(Nc3ccnc(C(F)(F)F)c3)c2)c1	62 µM	51.5 µM	21.2 µM		42.8 µM	31.2 µM	23.4 µM	16.6 µM	8.22 µM	2.27 µM	6.65 µM	25.9 µM	15.5 µM	3 µM	32.4 µM	2.29 µM	24 µM	16 µM	0.894 µM	
Cc1ccc(C)c(N2C(=O)C(=O)C(c3nc4ccccc4s3)/C(=N/N)C2=O)c1 (configuration not stated)	> 100 µM	> 100 µM	> 100 µM	> 100 µM	> 100 µM	> 100 µM	> 100 µM													
COc1cc2cc(OC(C)=O)c3cc4c(cc3c2c(OC)c1OC)OCO4	> 100 µM	> 100 µM	> 100 µM		> 100 µM	> 100 µM	> 100 µM													
COc1ccc(Cc2c3cc(O)c(=O)cc-3ccn2C)cc1	> 100 µM	> 66.8 µM	> 100 µM	> 100 µM		> 92.9 µM	83.3 µM													
C=CCC1(CN(C)C)CC/C(=C\c2ccc(OC)cc2)C1=O (configuration not stated)		> 100 µM	> 100 µM	52.6 µM	> 100 µM	> 100 µM	> 100 µM													
COC(=O)[C@@H]1c2cc3c(c(O)c2[C@@H](OC2OC(C)C(OC)C(C)(OC)C2OC)C[C@]1(C)O)C(=O)c1c(O)cc2c(c1C3=O)O[C@H]1O[C@]2(C)[C@H](O)[C@@H](N(C)C)[C@@H]1O (some centres not stated)	4.94 µM	2.1 µM	0.0399 µM and 0.0694 µM	0.0557 µM	1.14 µM	0.0699 µM and 0.0273 µM	0.0718 µM and 0.0966 µM			0.0141 µM		0.188 µM	0.117 µM				0.889 µM			
CC(=O)Nc1ccc(/C=C/C(=O)c2sc(-c3cccnc3)nc2C)cc1	> 100 µM	> 100 µM	> 100 µM	> 100 µM	> 100 µM	> 100 µM	> 100 µM													
CC1(C)OC2C(CCP(=O)(O)O)OC(c3nc(C(N)=O)cs3)C2O1 (configuration not stated)	> 100 µM	> 100 µM	> 100 µM	> 100 µM	> 100 µM	> 100 µM	> 100 µM													
CC(C)(C)C(=O)OCOP(=O)(NCc1ccccc1)C1CCCN(O)C1=O (configuration not stated)		> 100 µM	13.4 µM	7.28 µM	25.9 µM	5.68 µM	3.43 µM		3.15 µM	2.77 µM	4.09 µM	71.9 µM	2.75 µM	2.03 µM	6.65 µM	1.98 µM	57.6 µM	1.74 µM	0.462 µM	2.25 µM
CCOC(=O)c1cc(C(=O)c2ccc(OC)cc2)n2ccc(/C=C/c3cc[n+](CC(=O)c4ccc(OC)cc4)cc3)cc12	> 100 µM	3.94 µM	5.5 µM	4.85 µM	> 100 µM	3.69 µM		> 100 µM	1.98 µM	2.22 µM			5.67 µM	> 100 µM	> 100 µM	1.91 µM	4.43 µM	1.87 µM		1.65 µM
CN(CCS(=O)(=O)N1C(=O)C2CCCN2C(=O)[C@@H]1Cc1ccccc1)C(=O)OCc1ccccc1 (some centres not stated)	> 100 µM	> 100 µM	> 100 µM	45.4 µM	> 100 µM	> 100 µM	> 100 µM													
O=C1C=C(Nc2ccc(Cl)cc2Cl)c2ccccc2C1=O	> 100 µM	> 100 µM	54.5 µM	> 100 µM	> 100 µM	> 100 µM	87.2 µM													
Cc1c(C)n(CCCN2CCN(C)CC2)c2ccc(Oc3cccc(C(=O)N4CCN(CCc5ccc(F)cc5)CC4)c3)cc12	3.62 µM	2.95 µM	3.49 µM		3.09 µM	3.24 µM		1.91 µM	1.53 µM	1.85 µM	1.78 µM	3.33 µM	1.59 µM	1.79 µM	3.54 µM			1.78 µM		
COC(COC(N)=O)C1=C(N2CC2)C(=O)C(C)=C(N2CC2)C1=O (configuration not stated)	1.8 µM	0.186 µM	0.0907 µM	3.16 µM	0.762 µM	0.484 µM	0.299 µM					1.42 µM			0.101 µM					
COC(=O)c1cc2c(=O)n(C)c3ccccc3n2c1C(=O)OC	66.8 µM	50.3 µM	> 100 µM	> 100 µM	> 100 µM	> 100 µM	81.2 µM													
C/C(=N\N=C(N)N)C(CN1CCCCC1)C(c1ccccc1)c1c(O)c2ccccc2oc1=O (configuration not stated)	> 100 µM	> 100 µM	> 100 µM	> 100 µM	> 100 µM	> 100 µM	> 100 µM													
CC(C)C[C@H](NC(=O)CNC(=O)c1cc(Cl)ccc1Cl)B(O)O	8.26 µM	0.814 µM		0.0162 µM		0.174 µM	5.09 µM	0.0997 µM	0.0278 µM	0.0282 µM			0.0272 µM	0.183 µM	> 100 µM	< 0.0156 µM	0.0602 µM	< 0.0175 µM	0.416 µM	< 0.01 µM
C=C(c1ccc(OC)c(/C=C/C(=O)c2ccc3c(c2)OCO3)c1)c1cc(OC)c(OC)c(OC)c1	> 100 µM	5.61 µM	> 100 µM	7.39 µM				5.07 µM	2.16 µM	3.2 µM				2.77 µM	37.2 µM	2.66 µM	> 100 µM			1.56 µM

Structure (SMILES)	TGI [1]	TGI [2]	TGI [3]	TGI [4]	TGI [5]	TGI [6]	TGI [7]	GI50 [1]	GI50 [2]	GI50 [3]	GI50 [8]	TGI [8]	GI50 [5]	GI50 [9]	TGI [9]	GI50 [10]	TGI [10]	GI50 [6]	GI50 [7]	GI50 [4]
CCOC(=O)Cc1c(C)c2cc(C(=O)c3ccccc3)c(O)cc2oc1=O		> 100 µM	46.6 µM	> 100 µM	> 100 µM	> 100 µM	> 100 µM					> 100 µM			73.3 µM		88.3 µM			
COC1CCC(OS(C)(=O)=O)C(CO)O1 (configuration not stated)	> 100 µM	> 100 µM	> 100 µM		> 100 µM	> 100 µM														
CCN(CC)CCCNc1nccc2c(C)c3c(cc12)c1cnccc1n3C	2.73 µM	1.2 µM	1.18 µM		0.779 µM	1.47 µM														
NCCSSCc1ccccc1CSSCCN	> 100 µM	> 100 µM	> 100 µM	> 100 µM	> 100 µM	> 100 µM	> 100 µM													
N#C/C(=C\c1cc(O)cc(O)c1)C(N)=O	> 100 µM	> 100 µM	> 100 µM	> 100 µM	> 100 µM	> 100 µM	> 100 µM													
Cc1nc2sccn2c1C(=O)NN	> 100 µM	> 100 µM	> 100 µM	> 100 µM	> 100 µM	> 100 µM	> 100 µM													
COc1ccc(C(c2ccccc2)(c2ccc(OC)cc2)N2C(=O)NC3C(CCCCC(=O)NCCCCCCOP(OCCC#N)N(C(C)C)C(C)C)SCC32)cc1 (configuration not stated)		35.9 µM	32.3 µM		35.6 µM	29 µM	30.4 µM													
O=C(CSc1nc2c(n1Nc1ccccc1)-c1ccccc1SC2)Nc1nc(-c2ccc(Cl)cc2)cs1	29.5 µM	34.8 µM	97.1 µM	> 100 µM	> 100 µM	> 100 µM	> 100 µM	11.8 µM	12.7 µM	6.48 µM			> 100 µM	25.5 µM	> 100 µM	26.6 µM	> 100 µM	> 100 µM	29.9 µM	> 100 µM
O=C(C(=O)c1cc2ccccc2[nH]1)c1cc2ccccc2[nH]1	> 347 µM	> 347 µM	> 347 µM	> 110 µM	> 347 µM	> 347 µM	> 347 µM													
O=C1[C@H]2ON(c3ccccc3)C(c3ccc([N+](=O)[O-])cc3)[C@H]2C(=O)N1c1ccc(Cc2ccc(N3C(=O)[C@@H]4ON(c5ccccc5)C(c5ccc([N+](=O)[O-])cc5)[C@@H]4C3=O)cc2)cc1 (some centres not stated)	> 100 µM	> 100 µM	> 100 µM	> 100 µM	> 100 µM	> 100 µM	> 100 µM													
CCC[C@H]1O[C@@H]2CC(=O)O[C@@H]2C2=C1C(=O)C=CC2=O	> 56.3 µM	30.3 µM	18.5 µM	74.6 µM	32.4 µM	31.5 µM	18.4 µM													
C=C(C)[C@H]1CC[C@@]2(C)C(C1)[C@H](C)CC[C@@H]2O (some centres not stated)	> 100 µM	> 100 µM	> 100 µM	> 100 µM	> 100 µM	> 100 µM	> 100 µM													
C=CCNC(=O)NCCCCC(NC(C)=O)C(=O)NCc1ccccc1 (configuration not stated)	> 100 µM	> 100 µM	> 100 µM	> 100 µM	> 100 µM	> 100 µM	> 100 µM													
OCC1C(OCc2ccccc2)C(OCc2ccccc2)C(OCc2ccccc2)CN1Cc1ccccc1 (configuration not stated)	> 100 µM	> 100 µM	53.3 µM		> 100 µM	> 100 µM	> 100 µM					> 100 µM			> 100 µM		> 100 µM			
C=CSCCC(N)C(=O)O (configuration not stated)		> 100 µM	> 100 µM		> 100 µM	> 100 µM	> 100 µM													
CC(C)(O)C(O)COc1c2c(cc3oc(=O)ccc13)OCO2 (configuration not stated)	> 100 µM	> 100 µM	> 100 µM	> 100 µM	> 100 µM	> 100 µM	> 100 µM													
C=C[C@@H](C)[C@]1(C(=O)OC)CCCC12OCCO2	> 100 µM	> 100 µM		> 100 µM	> 100 µM	> 100 µM	> 100 µM													
COc1cc(/C=C2\CC3C4CC=C5C[C@@H](OC(C)=O)CC[C@]5(C)C4CC[C@]3(C)C2=O)ccc1OCCN1CCCCC1 (some centres not stated)	8.5 µM	3.1 µM	22.2 µM		3.25 µM	> 100 µM	28.6 µM	2.75 µM	1.66 µM	10.4 µM	1.93 µM	4.28 µM	1.29 µM	3.56 µM	6.89 µM	2.98 µM	13.1 µM	3.24 µM	11.8 µM	
OC(CNc1ccnc2cc(Cl)ccc12)CNc1ccnc2cc(Cl)ccc12	3.89 µM	3.39 µM	7.77 µM	11.1 µM	44.6 µM		9.3 µM	1.92 µM	1.81 µM	2.79 µM	1.67 µM	3.1 µM	17.2 µM	> 100 µM	> 100 µM				2.98 µM	3 µM
COc1cc(C2C(Cl)C(=O)N2NC(=O)Cc2ccccc2)cc(Br)c1O (configuration not stated)	> 100 µM	> 100 µM	> 100 µM	> 100 µM	> 100 µM	> 100 µM	> 100 µM													
NC(=O)NNC(=O)CCn1[nH]c(=O)c(Cl)c(Cl)c1=O	> 100 µM	> 100 µM	> 100 µM		> 100 µM	> 100 µM	> 100 µM													
